Test results from patent US12377069B2, “Compounds, compositions, methods of using, and methods for preparing compounds” (UNIVERSITY OF LOUISVILLE RESEARCH FOUNDATION, INC., priority 2018, dated 2025).
“Also recorded” adds a separate entry of the source.

Tests used:
[1] = system: Nrf2; assay: Nrf2 expression, nuclear translocation and target genes; type: cell-based, human; details: for NQO1 expression in HT29 cells: 50 μM; for Nrf2 mRNA and protein levels / Nrf2 nuclear translocation: HT29, 50 μM; for Nrf2 nuclear translocation: 6 h
Method: Real time PCR: Total RNA was isolated from cells/tissue using Maxwell® 16 LEV simplyRNA tissue kit (Promega) and reverse transcribed with TaqManC Reverse transcription Kit (Applied Biosystems, CA, USA). The transcribed cDNA (after dilution) was mixed with 100 nM gene specific primers (Real time primers LLC) and 1×SYBR green reaction mix (Power SYBR® Green PCR Master Mix; Applied Biosystems, CA, USA). Changes in gene expression was analyzed using CFX96™ Real-Time System (Bio Rad) and fold change in expression was calculated using 2^ΔΔCT method using GAPDH/0-actin as house keeping gene and normalized with untreated control.
Immunoblots (Western blots): The total protein lysates were collected either from colon tissue/cells using radioimmunoprecipitation assay (RIPA) buffer (Sigma-Aldrich, USA) and quantified using BCA protein quantification kit (Thermo Scientific) as per instructional manual. Total protein (20-50 μg) of was resolved on NuPAGE™ 4-12% Bis-Tris gel (Novex Life technologies) and transferred to polyvinylidene difluoride membrane (0.22 μm pore; Millipore, USA). After blocking with 5% (w/v) skim milk powder (containing 1×TBS) for 1 h, the membrane was then incubated with respective antibodies at 4° C. overnight (dilutions of respective antibodies is given in Table A1). Next day, respective secondary antibody conjugated with Horseradish peroxidase were probed and the chemiluminescent substrate was used to detect the protein bands (ImageQuant LAS 4000). Densitometry analysis of bands were done using ImageJ software. Antibodies for Cldn4, Ocln, Cldn1, Cyp1A1, AhR, HO1, NQO1, Keap1, β-actin and Lamin B were purchased from Santa Cruz Biotechnologies (USA) and Nrf2 from Novus Biologicals (USA).
Confocal Imaging: HT29 or CaCo2 or BMDM cells (50,000 cells/well) were plated on to 8-well chambered slides (154534PK; ThermoFisher Scientific) allowed them to grow overnight. The cells were induced with vehicle (0.01% DMSO) or UroA (50 μM) or UAS03 (50 μM) for desired time points and fixed with cold methonol. The AhR or Nrf2 or Cldn4 stained with respective antibodies (1:200 dilution) followed by fluorecently labelled (Alexa flour 594 for AhR and Alexa flour 488 for Nrf2 and Cldn4) secondary ab (1:500 dilution; ThermoFisher Scientific). The nucleus was stained with DAPI (Sigma Aldrich). The confocal images were captured using Nikon AIR confocal microscope using 60× magnification lense with appropriate laser channels.

[2] = system: Nrf2^−/− mice; assay: TNBS-induced colitis in Nrf2^−/− mice; type: in vivo, mouse; details: 20 mg/kg every 12 h post TNBS
Method: FIG. 7: UroA/UAS03 utilize Nrf2 pathways to mitigate colitis. (A-F) Colitis was induced using TNBS in C57BL/6 (WT) and Nrf2^−/− mice (n=4-5/group 7-8 week old age). Mice were treated with Veh or UroA/UAS03 (20 mg/kg bodyweight) every 12 h post TNBS administration ending at 72 h. Representative data from two independent experiments is shown. (A) TNBS-induced colitis experimental design and treatment regimen. (B) Percent body weight loss (No TNBS− Solid black line; Veh+TNBS− Solid red line; UroA+TNBS− Solid blue line; UAS03+TNBS− Solid purple line), (C) representative colon images, (D) colon lengths, (E) gut permeability, (F) serum levels of IL-6 and TNF-α were determined. Statistical analysis was performed (unpaired t-test) using Graphpad Prism software. Error bars, ±SEM ***p<0.001; **p<0.01 *p<0.05.
2,4,6-Trinitrobenzenesulfonic acid (TNBS)-induced colitis: Male C57BL/6 or Nrf2^−/− mice (6-8 week old age mice) were anesthetized with ketamine/xylazine (100 mg/12.5 mg/kg IP) mixture and administered with single dose of TNBS (2.5 mg/mice; Sigma Aldrich, USA) in 50% ethanol. After administration of TNBS, mice were held upside down for 30-60 sec to ensure proper distribution of TNBS in the colon. Control group received 50% ethanol without TNBS. Mice with TNBS were randomly divided into three groups, viz. vehicle (0.25% sodium carboxymethylcellulose (CMC)), UroA and UAS03. UroA or UAS03 was resuspended in 0.25% sodium-CMC at desired concentrations. The mice were given orally Veh or UroA or UAS03 in 100 μl at desired concentrations (4 or 20 mg/kg/body weight). The treatment started after 12 hours of TNBS administration and every 12 hours thereafter up to 72 hours. The experiment was terminated post 60 h TNBS, where AhR^−/− mice were involved. In some experiments, we treated only once at post 12 h TNBS administration. TNBS administered and control mice were euthanized for tissue and plasma collection after 80 hours of TNBS/ethanol treatment. Mice were examined for colitis phenotype.

[3] = system: human primary monocytes; assay: LPS and EtOH induced TNF-α in human primary monocytes; type: cell-based; details: EtOH 25 mM 7 days; LPS 50 ng/ml
Method: FIG. 11: UroA reduces the LPS and EtOH induced TNF-α in human primary monocytes. (A) Human primary monocytes treated with UroA and LPS (50 ng/ml) for 6 h. The TNF-α in supernatant was measured. (B) Human primary monocytes were exposed to EtOH (25 mM) for 7 days. LPS (50 ng/ml) and UroA were added at day 6 and incubated for 24 h. The TNF-α levels in supernatant were measured using standard ELISA methods. Statistics performed using unpaired t-test using Graphpad Prism software. Error bars, ±SEM; ***p<0.001; **p<0.01
UroA reduces the LPS and EtOH induced TNF-α in human primary monocytes. Peripheral blood monocytes from chronic alcoholism patients produce increased spontaneous inflammatory mediators such as TNF-α, IL-6, IL-10 and IL-12. To mimic this condition, healthy peripheral blood monocytes were exposed for one week and tested whether UroA/UAS03 reduce the LPS-induced TNF-α.

[4] = molecular target: T1, breast cancer resistance protein (BCRP) (Homo sapiens, UniProt Q9UNQ0); assay: BCRP drug efflux activity; type: cell-based; details: colon cancer cell lines
T1 construct: endogenous in cells
T1 sequence (Q9UNQ0 whole entry): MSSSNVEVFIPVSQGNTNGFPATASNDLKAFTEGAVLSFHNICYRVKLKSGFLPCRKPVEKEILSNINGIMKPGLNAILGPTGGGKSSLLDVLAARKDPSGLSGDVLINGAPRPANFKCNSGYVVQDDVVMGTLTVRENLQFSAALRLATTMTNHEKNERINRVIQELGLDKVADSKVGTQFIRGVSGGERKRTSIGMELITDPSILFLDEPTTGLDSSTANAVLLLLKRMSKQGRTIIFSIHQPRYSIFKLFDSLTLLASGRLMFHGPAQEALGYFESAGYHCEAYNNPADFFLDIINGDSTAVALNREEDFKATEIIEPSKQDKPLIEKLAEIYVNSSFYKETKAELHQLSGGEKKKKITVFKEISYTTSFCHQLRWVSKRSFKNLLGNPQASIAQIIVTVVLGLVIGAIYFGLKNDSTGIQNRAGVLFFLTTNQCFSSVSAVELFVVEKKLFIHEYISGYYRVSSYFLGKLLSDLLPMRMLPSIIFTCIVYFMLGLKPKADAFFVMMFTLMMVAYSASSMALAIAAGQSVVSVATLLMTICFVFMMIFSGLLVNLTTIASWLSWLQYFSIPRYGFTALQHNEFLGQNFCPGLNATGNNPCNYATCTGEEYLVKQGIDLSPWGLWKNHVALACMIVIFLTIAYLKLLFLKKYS
From the text: Therefore, blocking its activity and/or downregulating the expression of BCRP, P-gp could reverse the effect and sensitize the cancer cells.

In the case of `Oc1ccc2c(c1)COc1cc(O)ccc1-2` [UAS03, 6H-benzo[c]chromene-3,8-diol], the “NQO1 expression in HT29 cells” value [1] is reported as “induced NQO1 expression”, the “Nrf2 mRNA and protein levels” value [1] is reported as “upregulated Nrf2” and the Nrf2 nuclear translocation [1] is reported as “induced its nuclear translocation”. For the same compound, the “barrier function (FITC-dextran leakage) in Nrf2^−/− mice” value [2] was “did not enhance barrier function”, the “body weight loss and colon shortening in Nrf2^−/− mice” value [2] was “did not appear to restore body weight loss” and the “serum IL-6 and TNF-α levels in Nrf2^−/− mice” value [2] was “partially reduced”.
In the case of `O=c1oc2cc(O)ccc2c2ccc(O)cc12` [UroA, 3,8-dihydroxy-6H-dibenzo[b,d]pyran-6-one], the “NQO1 expression in HT29 cells” value [1] is reported as “induced NQO1 expression”, the “Nrf2 mRNA and protein levels” value [1] is reported as “upregulated Nrf2” and the Nrf2 nuclear translocation [1] is reported as “induced its nuclear translocation”. For the same compound, the “barrier function (FITC-dextran leakage) in Nrf2^−/− mice” value [2] was “did not enhance barrier function”, the “body weight loss and colon shortening in Nrf2^−/− mice” value [2] was “did not appear to restore body weight loss” and the “serum IL-6 and TNF-α levels in Nrf2^−/− mice” value [2] was “partially reduced”. For the same compound, the “LPS-induced TNF-α in chronically EtOH exposed human monocytes” value [3] was “reduced” and the “BCRP drug efflux activity” value [4] was “decreased drug efflux activities; also recorded: reduced the BCRP activity”.
